Measured values reported in publication PMC11277004, “Di- and Triselenoesters—Promising Drug Candidates for the Future Therapy of Triple-Negative Breast Cancer” (International Journal of Molecular Sciences, 2024).
Read-outs that look alike come from different tables or passages of the source.

What was measured:
Type in all cases: cell-based, human
[1] = test system: MDA-MB-231 triple-negative breast cancer cells; assay: MTT cytotoxicity test, MDA-MB-231; conditions: MDA-MB-231, 24 h incubation, read-out: IC50, cell viability (MTT)
Method: MCF-7 and MDA-MB-231 human breast cancer cell lines, as well as MCF-10A normal human breast epithelial cells, were acquired from the American Type Culture Collection (ATCC, Manassas, VA, USA). The characteristics of the breast cancer cell lines used in this study are compared in Table 1. MCF-7 and MDA-MB-231 cells were cultured in Dulbecco’s modified Eagle’s medium (Gibco, San Diego, CA, USA), while MCF-10A cells were cultured in the mammary epithelial cell growth medium with the following supplements: BPE, hEGF, insulin, hydrocortisone, GA-1000 (Lonza, Basel, Switzerland). All media were complemented by 10% of fetal bovine serum (FBS) and 1% of the following antibiotics: penicillin and streptomycin (both Gibco, San Diego, CA, USA). The cells were maintained in an incubator that provides the optimal growth conditions for the cell culture: 5% CO2, 37 °C, and humidity in a range of 90–95%. The cells were cultured in 100 mm plates (Sarstedt, Newton, NC, USA). Subsequently, after obtaining a subconfluent cell culture, the cells were detached with 0.05% trypsin with 0.02% EDTA (Gibco, San Diego, CA, USA). […] In this study, cells that obtained 80% confluence were used. The MTT assay was used to determine the cytotoxic effects of the compounds in the study on MCF-7 and MDA-MB-231 breast cancer cells as well as MCF-10A normal human breast epithelial cells based on Carmichael’s method. […] After this time, the medium was removed, and the cell monolayer was washed with warm phosphate-buffered saline (PBS) without calcium and magnesium. In the next step, PBS and MTT solution in PBS (5 mg/mL) were added to each well to obtain a final MTT concentration of 0.5 mg/mL, and then the cells were incubated for 4 h (37 °C temperature, 5% CO2, 90–95% humidity). After the incubation period, the contents of each well were removed, 1 mL of DMSO was added to dissolve the formazan, and then the plate with the added DMSO was mixed for 5–10 min on a microplate shaker (Boeco, Hamburg, Germany). Then, 10 µL of Sorensen’s glycine buffer (a solution of 0.1 M glycine and 0.1 M sodium chloride adjusted to pH 10.5 with 0.1 M sodium hydroxide) was added. The absorbance of the obtained solution was immediately measured at a wavelength of λ = 570 nm using a Thermo Scientific Evolution 201 UV–VIS spectrophotometer (Thermo Fisher Scientific, Waltham, MA, USA). The absorbance result obtained in the control cells (without the addition of the tested compounds) was taken as 100%, while the viability of cells incubated with the tested compounds was presented as a percentage of the control value.

[2] = test system: MCF-7 breast cancer cells; assay: DNA biosynthesis assay ([3H]-thymidine incorporation), MCF-7; conditions: read-out: IC50, DNA biosynthesis
Method: The study of the antiproliferative properties (intensity of [^3H]-thymidine incorporation into cell DNA) of the tested derivatives against tested cell lines (MCF-7, MDA-MB-231, MCF-10A) was performed after 24 h incubation with varied concentrations of the tested compounds in the medium (0.5–5 µM) in 6-well plates (baseline seeding density: 5 × 10^5 cells/well). After 24 h the medium was removed, the cells were washed with PBS (Corning, Kennebunk, ME, USA), and a fresh medium was added. After that, the cells were treated with 0.5 µCi of tritium-labeled thymidine (specific activity 7 Ci/mmol) by incubating them with this compound for 4 h under the same conditions as the cell culture. In the first step, the medium was removed, and the cell monolayer was washed twice with 1 mL of 0.05 M Tris-HCl buffer pH 7.4 containing 0.11 M NaCl. To denature proteins, the cells were washed twice with 1 mL of 5% trichloroacetic acid (TCA) solution. Finally, cell lysis was performed by adding 1 mL of 0.1 M sodium hydroxide (NaOH) solution containing 1% sodium dodecyl sulfate (SDS) to each well. After five minutes, the obtained cell lysates were transferred to scintillation vials with 2 mL of scintillation fluid added to them beforehand. Radioactivity was measured using the Scintillation Counter 1900 TR, TRI-CARB (Packard, Perkin Elmer, Inc., San Jose, CA, USA). The intensity of DNA biosynthesis in the analyzed cells was expressed in terms of dpm/well. The result of the radioactivity measurement in the control cells (without the addition of tested compounds) was taken as 100%, while the values of cells incubated with the tested compounds were presented as a percentage of the control value.

[3] = test system: MCF-7 breast cancer cells; assay: Mitochondrial membrane potential (JC-1, flow cytometry), MCF-7; conditions: 24 h
Method: (§1) The entire cell staining and cytometric analysis procedures were performed according to the instructions provided with the kit. In the first step, the cells (1 × 10^6 cells/sample) were washed and resuspended in 0.5 mL of buffer containing 10 µg/mL JC-1 dye. Incubation was carried out for 15 min at room temperature, protected from light. Afterward, the cells were washed twice with buffer, resuspended in 0.5 mL PBS, and immediately analyzed using a flow cytometer (BD FACSCanto II; 10,000 events measured) and the FACSDiva 6.0 software (BD Biosciences Systems, San Jose, CA, USA) to count the percentage of cells with reduced ΔΨm. The equipment was calibrated with the BD Cytometer Setup and Tracking Beads (BD Biosciences, San Diego, CA, USA).

[4] = test system: MDA-MB-231 breast cancer cells; assay: Mitochondrial membrane potential (JC-1, flow cytometry), MDA-MB-231; conditions: 24 h
Method: as §1

| SMILES | IC50 ([1]; Homo sapiens) [nM] | IC50 ([2]; Homo sapiens, MCF7, 24 h) [nM] | Decreased ΔΨm ± SD (cells) ([3]; MCF-7, 0.5 μM) [%] | Decreased ΔΨm ± SD (cells) ([3]; MCF-7, 1 μM) [%] | Decreased ΔΨm ± SD (cells) ([4]; MDA-MB-231, 0.5 μM) [%] | Decreased ΔΨm ± SD (cells) ([4]; MDA-MB-231, 1 μM) [%] | IC50 [1] [nM] | IC50 ([2]; MCF-7, 24 h incubation) [nM] |
| --- | --- | --- | --- | --- | --- | --- | --- | --- |
| CC(=O)C[Se]C(=O)c1ccc(C(=O)[Se]CC(C)=O)cc1 [EDAG-1, Se,Se-bis(2-oxopropyl) benzene-1,4-bis(carboselenoate)] | 710 ± 60 | 790 ± 20 | 10.0 ± 0.4 | 15.3 ± 1.1 | 29.2 ± 2.2 | 72.1 ± 0.9 |  |  |
| CC(=O)C[Se]C(=O)c1cc(C(=O)[Se]CC(C)=O)cc(C(=O)[Se]CC(C)=O)c1 [EDAG-8, Se,Se,Se-tris-(2-oxopropyl) benzene-1,3,5-tris-(carboxyselenoate)] | 530 ± 30 | 960 ± 70 | 18.7 ± 0.9 | 54.2 ± 4.6 | 55.0 ± 3.0 | 92.5 ± 0.7 |  |  |
| N.N.[Cl][Pt][Cl] [Cisplatin, reference compound] |  |  | 6.3 ± 1.6 | 7.2 ± 0.4 | 11.2 ± 0.9 | 12.9 ± 0.2 | > 5000 | > 5000 |
